This is an account of results in patent publication US8835485B2, “Prevention and treatment of sarcopenia” (PsiOxus Therapeutics Limited, priority 2009, dated 2014).

One data set has as its system healthy subjects. The settings on record: cited from earlier work.
In the next data set the target is T1, 5-HT1a receptor (Homo sapiens, UniProt P08908).
T1 sequence (P08908 1-422): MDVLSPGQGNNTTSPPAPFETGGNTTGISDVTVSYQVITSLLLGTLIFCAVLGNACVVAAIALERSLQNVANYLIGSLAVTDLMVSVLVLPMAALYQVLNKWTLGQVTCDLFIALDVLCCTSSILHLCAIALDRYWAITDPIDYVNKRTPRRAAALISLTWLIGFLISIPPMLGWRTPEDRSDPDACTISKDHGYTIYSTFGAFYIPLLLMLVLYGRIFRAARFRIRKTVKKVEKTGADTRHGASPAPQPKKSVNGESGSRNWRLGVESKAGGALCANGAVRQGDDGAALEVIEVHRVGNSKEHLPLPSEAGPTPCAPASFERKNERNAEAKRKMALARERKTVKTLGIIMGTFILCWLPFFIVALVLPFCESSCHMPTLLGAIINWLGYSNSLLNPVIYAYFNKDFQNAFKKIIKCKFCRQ
The settings on record: functional tests; cited from earlier work.

Data set [1] has as its system Old, healthy, male Wistar Han rats. Description: S-Pindolol in old (19 month) rats, 28 days: body weight, lean mass, organ weights. In kind it is in vivo, rat. The settings on record: 3 mg/kg/d. On the procedure:
Old, healthy, male Wistar Han rats (age 19 month, at the start of the experiment) were housed in groups of two to three per cage under standard laboratory conditions. Animals were randomized to receive either 3 mg/kg/d S-Pindolol/kg/d (n=8), or placebo (n=14) once daily per gavage for 28 days. Body composition (lean mass) of the animals was analyzed using the EchoMRI-700 system (Echo Medical Systems, Houston, Tex., USA) before treatment, once per week during the study and at the end of the study. Body weight was recorded before treatment, once per week during the study and at the end of study. Organ weights were recorded at the end of study. One tibialis muscle per animals was dried at 60° C. for 48 h.

The test system of data set [2] is Young, healthy, male Wistar Han rats. The experiment in a line: S-Pindolol in young healthy rats, 16 days: body weight, lean mass, organ weights. Type of data set: in vivo, rat. The settings on record: for Gastrocnemius organ weight at the end of the study: gavage once daily, placebo 1234 ± 30; for Soleus organ weight at the end of the study / EDL organ weight at the end of the study / Tibialis organ weight at the end of the study: gavage; for Soleus organ weight at the end of the study: placebo 97 ± 2; for EDL organ weight at the end of the study: placebo 104 ± 3; for Tibialis organ weight at the end of the study: placebo 447 ± 9; for EDL percent increase in weight / Soleus percent increase in weight: versus placebo. On the procedure: Young, healthy, male Wistar Han rats (201.8±2.4 g) were housed in groups of two to three per cage under standard conditions. Animals were randomized to receive either 0.3 mg S-Pindolol/kg/d (n=5), 3 mg S-Pindolol/kg/d (n=5) or placebo (n=16) once daily per gavage for 16 days. Body composition (lean mass) of the animals was analyzed using the EchoMRI-700 system (Echo Medical Systems, Houston, Tex., USA) before treatment and at the end of the study. Body weight was recorded before treatment and at the end of study. Organ weights were recorded at the end of study.

Take `CC(C)NCC(O)COc1cccc2[nH]ccc12` (racemic) [racemic pindolol]: the “Effect on diastolic blood pressure” value with healthy subjects (healthy subjects, similar dose) was “reducing”.
Consider `CC(C)NC[C@@H](O)COc1cccc2ccccc12` [(R)-propranolol], for which the “Block of the suppressant effects of 5-HT1a agonists on dorsal raphe neuronal firing” value at 5-HT1a receptor is on record as “not”.
On to `CC(C)NC[C@H](O)COc1cccc2ccccc12` [(S)-propranolol, (S)-1-isopropylamino-3-(1-naphthyloxy)-2-propanol], for which the “Block of the suppressant effects of 5-HT1a agonists on dorsal raphe neuronal firing” value on 5-HT1a receptor is “blocked”.
For `CC(C)NC[C@H](O)COc1cccc2[nH]ccc12` [S-Pindolol, S-(−)-1-(1H-indol-4-yloxy)-3-(1-methylethylamino)propan-2-ol], the “Tibialis organ weight at the end of the study” value in data set [1] (gavage, old rats, placebo 827 ± 34) is on record as 1034 ± 46 mg; in data set [2] (0.3 mg/kg/d), 526 ± 15 mg; in data set [2] (3 mg/kg/d), 535 ± 22 mg. For the same compound, the “Gastrocnemius organ weight at the end of the study” value in data set [1] (gavage, old rats, placebo 2283 ± 78) is listed as 2914 ± 133 mg; in data set [2] (0.3 mg/kg/d) it was 1420 ± 35 mg; in data set [2] (3 mg/kg/d), 1492 ± 37 mg. Besides, the “Lean body mass (i.e. muscle mass)” value in data set [1] (old rats, EchoMRI, FIGS. 7, 8) is reported as “increased”; in data set [2] (0.3 and 3 mg/kg/d, EchoMRI, FIG. 2) it was “dose dependently increased”. In data set [1] (old rats, FIGS. 4, 5), the “Body weight (change during the treatment period)” value is reported as “significantly increased”. In addition, the Tibialis dry mass in data set [1] (old rats, dried at 60° C. for 48 h, placebo 227 ± 9) stood at 276 ± 12 mg; in data set [1] (old rats, placebo 27.89 ± 0.78), 27.12 ± 0.46%. Moreover, the Tibialis water in data set [1] (old rats, placebo 72.1 ± 0.78) came to 72.88 ± 0.46%. Further, the “Soleus organ weight at the end of the study” value in data set [1] (old rats, placebo 181 ± 11) is reported as 173 ± 9 mg; in data set [2] (0.3 mg/kg/d), 107 ± 2 mg; in data set [2] (3 mg/kg/d) it was 103 ± 3 mg. Also, the “EDL organ weight at the end of the study” value came out at 236 ± 5 mg in data set [1] (old rats, placebo 197 ± 9); 124 ± 6 mg in data set [2] (0.3 mg/kg/d); 126 ± 4 mg in data set [2] (3 mg/kg/d). Besides, the “Lean mass increase compared to baseline” value in data set [1] (senile rats, placebo lost 1.5%) came to 12.7%. Further, the “EDL percent increase in weight” value in data set [2] (0.3 mg/kg/d) was “+19.2%”; in data set [2] (3 mg/kg/d), “+21.1%”. The “Soleus percent increase in weight” value in data set [2] (0.3 mg/kg/d) is reported as “+10.3%”; in data set [2] (3 mg/kg/d), “+6.2%”. The “Body weight (weight gain during treatment)” value in data set [2] (high dose (3 mg/kg/d), FIG. 1, p=0.0002 vs placebo) is “significantly increased”. Further, the “Alteration in blood pressure” value in the data set with healthy subjects (in vivo) was “no alteration”.
